The test system of one test is PC3. Kind of test: MTT proliferation assay, PC3. As to conditions: Prostate, PC3, 120 h of exposure. It counts as cell-based. The procedure: (§1) Proliferation Assays. IC50 values were determined for each cell line. Cells were seeded in 96-well plates at an appropriate cell density as determined from growth kinetics analysis and cultured for 5 days in the absence and presence of the test compounds. Cell proliferation was assessed after the addition of 20 μl of 3-4,5 dimethylthiazol-2,5-diphenyl tetrazolium bromide (MTT, 5 mg/ml in PBS, Sigma) for 5 hrs at 37° C. according to manufacturer's instructions. IC50 values were calculated from semi-log plots of % of control proliferation on the y-axis against log dose on the x-axis.
(§2) Anti-proliferative Activity of Isoflavonoid Derivatives. IC50 values were determined for each cell line after 120 h of exposure.
In general terms: Tetrazolium dyes change colour on reduction, which living cells bring about.

For a further test, the system named is R-182. As to the kind of experiment: MTT proliferation assay, R-182. Type of test: cell-based. The following applies: Ovarian, R-182, 120 h of exposure.
From the text: Tissue culture. The multidrug resistant primary epithelial ovarian cancer cell line R-182 TARA was a gift from Dr. Gil Mor (Yale University, New Haven, CT, USA). This cell line was derived by explant from ovarian tumors and cultured as previously described. All other cell lines were purchased from American Type Culture Collection (ATCC, Manassas, VA, USA) with the exception of MKN1, HuH-7, JHH-1, which were purchased from the Japanese Collection of Research Bioresources (JCRB, Osaka, Japan), and OE19 which was purchased from the European Collection of Cell Cultures (ECACC, Salisbury, UK).
as §1, §2

For another test, the system named is CALU3. Kind of test: MTT proliferation assay, CALU3. It counts as cell-based. As to conditions: NSCLC, CALU3, 120 h of exposure. The procedure: as §1, §2
The test system of a further test is A2058. As to the kind of experiment: MTT proliferation assay, A2058. It counts as cell-based. As to conditions: Melanoma, A2058, 120 h of exposure. The protocol:
as §1, §2

For the next test, the system named is A549. As to the kind of experiment: MTT proliferation assay, A549. Type of test: cell-based. The following applies: NSCLC, A549, 120 h of exposure. The protocol:
as §1, §2

For a further test, the system named is NCI-H460. Kind of test: MTT proliferation assay, NCI-H460. It counts as cell-based, human. The following applies: NSCLC, NCI-H460, 120 h of exposure. The procedure: (§3) The human non-small cell lung adenocarcinoma lines NCI-H1299 (CRL-5803), NCI-H460 (HTB-177), NCI-H358 (CRL-5807), NCI-H838 (CRL-5844), the human colorectal adenocarcinoma lines COLO 205 (CCL-222), HCT-15 (CCL-225) and the human gastric cancer cell line NCI-N87 (CRL-5822) were cultured in RPMI 1640 medium containing 2 g/L sodium bicarbonate (Hyclone/Invitrogen) supplemented with 2 mM L-glutamine (Gibco) 1 mM sodium pyruvate (Sigma), 10 mM HEPES (Sigma) and 4500 mg/L glucose (Sigma). The human non-small cell lung adenocarcinoma line NCI-H2126 (CCL-256) was cultured in DMEM:F12(1:1) (Hyclone/Invitrogen) containing 2.5 mM L-glutamine 2.4 g/L sodium bicarbonate supplemented with 5% fetal bovine serum (FBS), an additional 2 mM L-glutamine, 15 mM HEPES, 0.005 mg/ml insulin (Sigma), 0.01 mg/ml transferrin (Sigma), 30 nM sodium selenite (Sigma), 10 nM hydrocortisone (Sigma) and 10 nM beta-estradiol (Sigma). The human colorectal adenocarcinoma line HT-29 (HTB-38) and the human gastric cancer cell lines OE-19 (#96071721) and MKN1 (JCRB0252) were cultured in RPMI 1640 media supplemented with 2 mM L-glutamine.
as §1, §2

Another test relates to DU145. As to the kind of experiment: MTT proliferation assay, DU145. Type of test: cell-based. As to conditions: Prostate, DU145, 120 h of exposure. The procedure:
as §1, §2

Another test concerns 4405. Kind of test: MTT proliferation assay, 4405. The following applies: Melanoma, 4405, 120 h of exposure. It counts as cell-based. The procedure:
as §1, §2

Another test relates to SK-Hep-1. Kind of test: MTT proliferation assay, SK-Hep-1. It counts as cell-based, human. As to conditions: Liver, SK-Hep-1, 120 h of exposure. The protocol:
(§4) The human hepatocellular carcinoma lines HepG2 (HB-8065), SK-HEP-1 (HTB-52) and the normal human lung fibroblast line IMR-90 (CCL-186) were cultured in Minimum Essential Eagles Medium containing 2 mM L-glutamine, 2.2 g/L sodium bicarbonate, supplemented with 1 mM sodium pyruvate and 0.1 mM non-essential amino acids. The human hepatocellular carcinoma line JHH-1 (JCRB1062) was cultured in Williams E Medium (Invitrogen) containing 2.2 g/L sodium bicarbonate, supplemented with 2 mM L-glutamine. The hepatocellular carcinoma line HuH-7 (JCRB0403) was cultured in DMEM, supplemented with 2 mM L-glutamine.
as §1, §2

Another test has as its system MDA-MB-468. As to the kind of experiment: MTT proliferation assay, MDA-MB-468. It counts as cell-based, human. As to conditions: Breast, MDA-MB-468, 120 h of exposure. The procedure: The human gastric cancer cell line AGS (CRL-1739) was cultured in Hams F-12K (Kaighans modification) medium containing 2 mM L-glutamine, 2.5 g/L sodium bicarbonate and 2 mM sodium pyruvate. The human breast adenocarcinoma line MDA-MB-468 (HTB-132) was cultured in DMEM:F12 (1:1) medium containing 2.5 mM L-glutamine, 2.4 g/L sodium bicarbonate, supplemented with an additional 2 mM L-glutamine.
as §1, §2

A further test has as its system CP70. As to the kind of experiment: MTT proliferation assay, CP70. Type of test: cell-based. As to conditions: Ovarian, CP70, 120 h of exposure. The protocol: as §1, §2
The subject of another test is LNCaP. Kind of test: MTT proliferation assay, LNCaP. As to conditions: Prostate, 120 h of exposure. Type of test: cell-based. The protocol: as §1, §2
The test system of a further test is HepG2. Kind of test: MTT proliferation assay, HepG2. It counts as cell-based, human. As to conditions: Liver, HepG2, 120 h of exposure. The protocol:
as §4, §1, §2

The test system of a further test is COLO205. As to the kind of experiment: MTT proliferation assay, COLO205. The following applies: CRC, COLO205, 120 h of exposure. It counts as cell-based, human. The protocol:
as §3, §1, §2

For a further test, the system named is A2780. As to the kind of experiment: MTT proliferation assay, A2780. As to conditions: Ovarian, A2780, 120 h of exposure. Type of test: cell-based. The protocol: as §1, §2
The next test has as its system HuH-7. Kind of test: MTT proliferation assay, HuH-7. It counts as cell-based, human. The following applies: Liver, HuH-7, 120 h of exposure. The procedure: as §4, §1, §2
The test system of a further test is MM200. As to the kind of experiment: MTT proliferation assay, MM200. It counts as cell-based. As to conditions: Melanoma, MM200, 120 h of exposure. The procedure: as §1, §2
Another test concerns SKBR-3. Kind of test: MTT proliferation assay, SKBR-3. It counts as cell-based, human. As to conditions: Breast, SKBR-3, 120 h of exposure. The procedure:
The human colorectal adenocarcinoma line HCT-116 (CCL-247) and the human breast adenocarcinoma line SK-BR-3 (HTB-30) were cultured in McCoy's 5a Medium (Invitrogen) containing 1.5 mM L-glutamine and 2.2 g/L sodium bicarbonate. The human colorectal adenocarcinoma line SW620 (CCL-227) was cultured in Leibovitz's L-15 Medium (Invitrogen) containing 2.05 mM L-glutamine.
as §1, §2

Setting [1] is: Homo sapiens, MDA-MB-468, 120 h.

Each structure is given as a SMILES string.

With `Cc1cc([C@H]2c3ccc(O)c(C)c3OC[C@H]2c2ccc(O)cc2)ccc1O` (relative stereo) [d-6, d-cis-3-(4-hydroxyphenyl)-4-(4-hydroxy-3-methylphenyl)-8-methylchroman-7-ol], the IC50 (usually the midpoint of a concentration-inhibition curve) in the test with PC3 was 150 to 500 nM; in the test with R-182, at most 150 nM; in the test on CALU3, 150 to 500 nM; in the test on A2058 it was at most 150 nM; in the test with A549 it was 150 to 500 nM; in the test with NCI-H460, 150 to 500 nM. Further, the half-inhibitory concentration (IC50) is 150 to 500 nM with DU145; 150 to 500 nM in the test with 4405; at most 150 nM in the test with SK-Hep-1; at most 150 nM in the test with MDA-MB-468; 150 to 500 nM with CP70; 150 to 500 nM in the test with LNCaP. Further, the IC50 was at most 150 nM in the test on HepG2, 1600 to 10000 nM with COLO205, 150 to 500 nM in the test on A2780 and 150 to 500 nM in the test with HuH-7.

With `Cc1cc([C@H]2c3ccc(O)c(C)c3OC[C@H]2c2ccc(O)cc2)ccc1O` (relative stereo) [l-6, l-cis-3-(4-hydroxyphenyl)-4-(4-hydroxy-3-methylphenyl)-8-methylchroman-7-ol], the 50% inhibitory concentration (IC50) with MM200, in the test on PC3, with R-182, in the test on CALU3, in the test with A2058 and in the test with A549 was at least 10000 nM throughout. The concentration for half-maximal inhibition (IC50) with NCI-H460 is at least 10000 nM; in the test with DU145 it was at least 10000 nM; with 4405, at least 10000 nM; in the test with SK-Hep-1 it was at least 10000 nM; in the test on SKBR-3, 1600 to 10000 nM; in the test on MDA-MB-468 it was at least 10000 nM. Also, the IC50 in the test with CP70, with LNCaP, with HepG2, with COLO205, with A2780 and in the test with HuH-7 was at least 10000 nM throughout.

For the compound `COc1ccc([C@H]2c3ccc(O)c(C)c3OC[C@H]2c2ccc(O)cc2)cc1C` [d-7, d-cis-3-(4-hydroxyphenyl)-4-(4-methoxy-3-methylphenyl)-8-methylchroman-7-ol], the 50% inhibitory concentration (IC50) was in the range of 510 to 1500 nM in the test on PC3 (Homo sapiens, PC-3, 120 h); 510 to 1500 nM in the test on R-182; 1600 to 10000 nM with CALU3 (Homo sapiens, Calu-3); 510 to 1500 nM with A2058 (Homo sapiens, A2058, 120 h); 1600 to 10000 nM in the test with A549 (Homo sapiens); 1600 to 10000 nM in the test on NCI-H460 (Homo sapiens). Further, the concentration for half-maximal inhibition (IC50) is 510 to 1500 nM in the test on DU145 (Homo sapiens, DU-145); 1600 to 10000 nM in the test on 4405; 1600 to 10000 nM in the test with SK-Hep-1 (Homo sapiens, SK-HEP1); 150 to 500 nM with MDA-MB-468 (setting [1]); 510 to 1500 nM with CP70 (120 h); 1600 to 10000 nM in the test with LNCaP (Homo sapiens). Further, the IC50 in the test on HepG2 (Homo sapiens) is 510 to 1500 nM; in the test with COLO205 (Homo sapiens, COLO 205) it was at least 10000 nM; in the test on A2780 (Homo sapiens, A2780, 120 h), 510 to 1500 nM; with HuH-7 (Homo sapiens), 510 to 1500 nM.

With `COc1ccc([C@@H]2c3ccc(O)c(C)c3OC[C@@H]2c2ccc(O)cc2)cc1C` [l-7, l-cis-3-(4-hydroxyphenyl)-4-(4-methoxy-3-methylphenyl)-8-methylchroman-7-ol], the IC50 in the test on PC3 (Homo sapiens, PC-3, 120 h) is at least 10000 nM; in the test with R-182 it was at least 10000 nM; in the test with CALU3 (Homo sapiens, Calu-3), at least 10000 nM; in the test on A2058 (Homo sapiens, A2058, 120 h) it was at least 10000 nM; with A549 (Homo sapiens) it was at least 10000 nM; in the test on NCI-H460 (Homo sapiens) it was at least 10000 nM. In addition, the IC50 in the test with DU145 (Homo sapiens, DU-145) is at least 10000 nM; in the test with 4405, at least 10000 nM; with SK-Hep-1 (Homo sapiens, SK-HEP1), at least 10000 nM; with MDA-MB-468 (setting [1]) it was at least 10000 nM; with CP70 (120 h), at least 10000 nM; in the test with LNCaP (Homo sapiens) it was at least 10000 nM. Besides, the 50% inhibitory concentration (IC50) in the test on HepG2 (Homo sapiens) was at least 10000 nM; in the test on COLO205 (Homo sapiens, COLO 205) it was at least 10000 nM; in the test with A2780 (Homo sapiens, A2780, 120 h) it was at least 10000 nM; in the test with HuH-7 (Homo sapiens), at least 10000 nM.

Source of the values: US12329739B2, “Isoflavonoid compounds and methods for the treatment of cancer” (Aardvark Therapeutics, Inc., priority 2010, dated 2025).
